{"source": "paper PMC3674157", "about": "(European journal of medicinal chemistry, 2013)", "assay_type_in_all_cases": "cell-based", "key": {"[1]": {"tested_on": "HeLa human cervical carcinoma cells", "experiment": "High-content analysis of mitotic arrest in HeLa cells", "conditions": "for mitotic arrest phenotype (immunostaining of α-tubulin, phosphohistone H3, Hoechst 33342): 1a 62 nM, 2c 940 nM, 3a 470 nM; for MDEC Nuclear condensation / MDEC Tubulin intensity: HCS assay, minimum detectable effective concentration"}, "[2]": {"tested_on": "MDA-MB-231 human breast cancer cells", "experiment": "Wound healing", "conditions": "three different concentrations"}, "[3]": {"tested_on": "REH human acute lymphoblastic leukemia cells", "experiment": "REH cytotoxicity, MTT assay", "conditions": "REH and JURKAT versus NIH3T3, HUVEC"}}}
{"smiles": "COc1cc2c(c(OC)c1OC)-c1ccc(OC)c(=O)cc1[C@@H](NC(C)=O)CC2", "note": "[Compound 1a, colchicine, reference compound]", "values": [{"measurement": "mitotic arrest phenotype (immunostaining of α-tubulin, phosphohistone H3, Hoechst 33342)", "setting": "[1]", "result": "tubulin disorganization, increased number of phosphohistone H3-positive cells, chromatin condensation, and nuclear fragmentation"}, {"measurement": "MDEC Nuclear condensation", "setting": "[1]", "result": "12.0 ± 4.8", "unit": "nM"}, {"measurement": "MDEC Tubulin intensity", "setting": "[1]", "result": "10.2 ± 3.8", "unit": "nM"}, {"measurement": "cell migration in the scratch wound assay", "setting": "[2]", "result": "significantly inhibited cell migration"}]}
{"smiles": "O=C(/C=C/c1ccccc1)c1ccccc1", "note": "[Compound 2a, 1,3-diphenylprop-2-en-1-one]", "values": [{"measurement": "MDEC Nuclear condensation", "setting": "[1]", "result": ">50,000 nM"}, {"measurement": "MDEC Tubulin intensity", "setting": "[1]", "result": ">50,000 nM"}]}
{"smiles": "COc1cc(C(=O)/C=C/c2ccc3ccccc3c2)ccc1O", "note": "[Compound 2b, (2e)-3-(2-naphthyl)-1-(3'-methoxy-4'-hydroxy-phenyl)-2-propen-1-one]", "values": [{"measurement": "MDEC Nuclear condensation", "setting": "[1]", "result": "2,200 ± 700 nM"}, {"measurement": "MDEC Tubulin intensity", "setting": "[1]", "result": "1,100 ± 200 nM"}]}
{"smiles": "COc1cc(C(=O)/C=C/c2ccc3ccccc3c2)cc(OC)c1OC", "note": "[Compound 2c, (2E)-1-(3’,4’,5’-trimethoxyphenyl)-3-(2-naphthyl)-2-propen-1-one]", "values": [{"measurement": "selectivity, nontransformed cells (NIH3T3, HUVEC, PBMC) compared with the two human tumor cell lines", "setting": "[3]", "result": "45 – 100 fold"}, {"measurement": "mitotic arrest phenotype (immunostaining of α-tubulin, phosphohistone H3, Hoechst 33342)", "setting": "[1]", "result": "tubulin disorganization, increased number of phosphohistone H3-positive cells, chromatin condensation, and nuclear fragmentation"}, {"measurement": "MDEC Nuclear condensation", "setting": "[1]", "result": "317 ± 23", "unit": "nM"}, {"measurement": "MDEC Tubulin intensity", "setting": "[1]", "result": "283 ± 52", "unit": "nM"}, {"measurement": "cell migration in the scratch wound assay", "setting": "[2]", "result": "significantly inhibited cell migration"}]}
{"smiles": "COc1ccc(/C=C/C(=O)c2ccc3c(c2)OCO3)c(OC)c1OC", "note": "[Compound 2d, (2E)-1-(1’,3’-benzodioxol-5-yl)-3-(2,3,4-trimethoxyphenyl)-2-propen-1-one]", "values": [{"measurement": "MDEC Nuclear condensation", "setting": "[1]", "result": ">50,000 nM"}, {"measurement": "MDEC Tubulin intensity", "setting": "[1]", "result": ">50,000 nM"}]}
{"smiles": "COc1cc(C(=O)/C=C/c2ccc(N(C)C)cc2)cc(OC)c1OC", "note": "[Compound 3a, (2E,Z)-1-(3’,4’,5’-trimethoxyphenyl)-3-(4-dimethylaminophenyl)-2-propen-1-one]", "values": [{"measurement": "selectivity, nontransformed cells (NIH3T3, HUVEC, PBMC) compared with the two human tumor cell lines", "setting": "[3]", "result": "45 – 100 fold"}, {"measurement": "mitotic arrest phenotype (immunostaining of α-tubulin, phosphohistone H3, Hoechst 33342)", "setting": "[1]", "result": "tubulin disorganization, increased number of phosphohistone H3-positive cells, chromatin condensation, and nuclear fragmentation"}, {"measurement": "MDEC Nuclear condensation", "setting": "[1]", "result": "217 ± 67", "unit": "nM"}, {"measurement": "MDEC Tubulin intensity", "setting": "[1]", "result": "139 ± 13", "unit": "nM"}, {"measurement": "cell migration in the scratch wound assay", "setting": "[2]", "result": "significantly inhibited cell migration"}]}
